# Data: PMC8918029 (Journal of medicinal chemistry, 2021)
# Entries after “also recorded” stand apart in the source; their conditions may differ.
# Columns and labels:
# [1] = target: purified γ-secretase (Homo sapiens, UniProt P49768); test: Inhibition constant; assay type: biochemical; conditions: double-reciprocal plots, varying C100Flag
# [2] = target: γ-secretase (Homo sapiens, UniProt P49768); test: Cross-competition kinetic experiments between two inhibitors; assay type: biochemical; conditions: [38] = 0, 0.15, 0.30, 0.60 nM; C100 0.50 μM; parallel lines indicate cross-competition
structure (smiles),measurement,setting,value
"CC[C@@H](C)[C@@H](NC(=O)[C@H](NC(=O)[C@H](NC(=O)C(C)(C)NC(=O)CNC(=O)[C@H](NC(=O)OC(C)(C)C)C(C)C)C(C)C)C(C)C)C(=O)NC(C)(C)C(=O)N[C@@H](C(=O)N[C@@H](C(=O)NC(C)(C)C(=O)NCCCCCCCCCCC(=O)N[C@H](C(=O)N[C@@H](Cc1ccccc1)[C@H](O)CN(Cc1ccccc1)C(=O)N[C@@H](CC(C)C)C(=O)N[C@H](C(N)=O)C(C)C)C(C)C)C(C)C)[C@H](C)O [Compound 38, Boc-^DVal-Gly-Aib-^DVal-^DVal-^DIle-Aib-^DThr- ^DVal-Aib-NH(CH2)10CO-Val-Phe-ψ-Phe-Leu-Val-NH2]",Inhibition profile (mode of inhibition),[1],noncompetitive; also recorded: non-competitive inhibition
same,Cross-competition with TSA 1 and HPI 2 for binding,[2],could compete with both TSA 1 and HPI 2; also recorded: competes with both TSA 1 and HPI 2
